pIC50: −log10 of the molar value.

The target in one assay is T1, P2X3 (UniProt P56373).
T1 sequence (P56373 1-397): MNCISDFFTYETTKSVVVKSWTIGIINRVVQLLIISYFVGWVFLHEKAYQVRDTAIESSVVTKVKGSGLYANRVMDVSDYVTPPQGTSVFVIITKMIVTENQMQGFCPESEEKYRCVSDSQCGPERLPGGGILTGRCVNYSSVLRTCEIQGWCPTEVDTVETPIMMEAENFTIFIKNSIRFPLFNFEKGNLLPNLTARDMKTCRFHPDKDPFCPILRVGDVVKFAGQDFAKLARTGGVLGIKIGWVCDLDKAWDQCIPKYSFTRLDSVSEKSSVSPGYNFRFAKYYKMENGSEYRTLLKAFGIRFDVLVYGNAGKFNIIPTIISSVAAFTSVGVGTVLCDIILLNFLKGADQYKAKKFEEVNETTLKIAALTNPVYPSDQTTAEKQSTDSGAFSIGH
The assay can be described thus: P2X3 FLIPR intracellular calcium assay. It counts as cell-based. The conditions noted are these: agonist at EC75, species (human or rat) not given. The source says: The FLIPR® assay utilizes cells which express human or rat P2X3 or P2X2/3 receptors. […] The PCR product obtained containing the protein coding sequence of rat P2X2 was cloned into EcoRV-digested and dephosphorylated vector pIRES-puro3 within the multiple cloning site (MCS). See, FIG. 1A.
Rat P2X3 (NCBI Accession No: X91167) was amplified by PCR from rat brain cDNA. The PCR product obtained containing the protein coding sequence of rat P2X3 was cloned into EcoRV-digested and dephosphorylated vector pCDNA-Hygro within the multiple cloning site (MCS) (FIG. 1B). Rat P2X3 cloned into pcDNA-Hygro was then subcloned into pcDNA-5/TO at HindIII (5′) and XhoI (3′) sites within the multiple cloning site (MCS) of the vector (FIG. 1C).
(§1) Transfection was carried out using super-coiled constructs (purified using QIAGEN kit) in antibiotic free, serum free DMEM using Lipofectamine® 2000 (Invitrogen) transfection agent. The DNA constructs rat P2X2 in pIRES-Puro3 and rat P2X3 in pCDNA5/TO were co-transfected into TRex293 cells in order to generate the rP2X2/3 stable line. 50 μg/mL hygromycin (Invitrogen) and 0.5 μg/mL puromycin (Fermentek) were used for selection of stable clones of rP2X2/3. Rat P2X3 in pCDNA5/TO DNA construct was transfected to CHO-TRex cells to generate the rP2×3 stable line and 500 μg/mL hygromycin (Invitrogen) was used as selection antibiotic. Transfected stable colonies were then functionally verified and robust clones suitable for assay were clonally purified through dilutions.
(§2) Cryo-vial containing 6×10^6 cells (human P2X3-HEK/human P2X2/3-TRex293/rat P2X2/3-TRex293/rat P2X3 TRex-CHO) was thawed in a 37° C. water bath. Cells were suspended in 20 mL of respective cell plating media (See annexure for composition) in a 50 mL centrifuge tube. The cell viability was checked with the help of Trypan Blue dye. Upon washing, cells were plated in a black 384-well clear bottomed, sterile poly-D-lysine coated plate such that, each well contained 10,000 cells (15,000/well for hP2X3) in 30 μL cell plating media. The plate was incubated in a 5% CO2 incubator at 37° C. for 24 h.
(§3) The next day, prior to the assay, the cell plating media was removed from each well by decanting and gentle tapping. Thirty μL of FLIPR Calcium 4 dye solution was added to each well. The plate was incubated at 37° C. for 45 min (60 min for hP2X3). The plate was next equilibrated at room temperature for 15 minutes before placing it in a 384 well FLIPR for the assay.
Dilutions were mixed with assay buffer just before performing the assay.
(§4) Compounds were added to the respective wells of the assay-ready cell plate with the help of the FLIPR and fluorescence readings were captured for 5 min to observe any possible agonistic property of the compounds. The plate was then incubated at room temperature for 15 min. The cells were stimulated with respective agonist EC75 concentration and the fluorescence readings were captured for another 5 min by FLIPR. The difference in fluorescence readings in presence of the compounds were compared with that of the control wells (wells having no compound) to calculate the inhibitory potency of the compounds. The IC50 values of the compounds were determined using the Graph pad Prism software.
(vi) Dye Solution Composition • 1×FLIPR Calcium 4 dye in assay buffer (Molecular devices Cat# R8141) • 1.8 mM Probenecid (Sigma Cat# P8761) • pH adjusted to 7.4

In a further assay the target is T2, P2X2/3 (Homo sapiens, UniProt P56373+Q9UBL9).
T2 sequence (Q9UBL9 1-471): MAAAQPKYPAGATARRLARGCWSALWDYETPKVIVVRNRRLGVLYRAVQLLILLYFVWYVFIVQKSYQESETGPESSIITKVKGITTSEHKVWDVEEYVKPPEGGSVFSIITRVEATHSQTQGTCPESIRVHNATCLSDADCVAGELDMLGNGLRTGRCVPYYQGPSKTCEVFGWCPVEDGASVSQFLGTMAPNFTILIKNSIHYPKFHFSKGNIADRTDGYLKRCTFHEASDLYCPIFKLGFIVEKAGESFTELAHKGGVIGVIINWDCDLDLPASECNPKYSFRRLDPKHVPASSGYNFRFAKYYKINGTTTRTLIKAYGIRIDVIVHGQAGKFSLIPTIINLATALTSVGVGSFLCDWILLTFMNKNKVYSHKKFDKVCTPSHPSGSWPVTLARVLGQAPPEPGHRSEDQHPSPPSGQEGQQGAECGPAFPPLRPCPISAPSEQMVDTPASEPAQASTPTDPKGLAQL
T2 sequence (P56373 1-397): T1 sequence (P56373 1-397)
Put plainly: P2X2/3 FLIPR intracellular calcium assay. It counts as cell-based. The conditions noted are these: agonist at EC75, species (human or rat) not given.
Description: The FLIPR® assay utilizes cells which express human or rat P2X3 or P2X2/3 receptors. Recombinant cells expressing hP2X3 (Cat#6188) and hP2X2/3 (Cat#6179) were procured from Chantest Corp. Rat P2X2 (NCBI Accession No: U14414) was amplified by PCR from PC12 cDNA (a rat adrenal medulla cell line). The PCR product obtained containing the protein coding sequence of rat P2X2 was cloned into EcoRV-digested and dephosphorylated vector pIRES-puro3 within the multiple cloning site (MCS). See, FIG. 1A.
as §1, §2, §3
Compounds were dissolved in DMSO and serially diluted following 11 point half log (3.16 fold) dilution with a starting concentration of 2 mM. Dilutions were mixed with assay buffer just before performing the assay.
as §4
(ii) Cell Plating Media for hP2X3-HEK and hP2X2/3-TRex293 Cells • DMEM/F12 (1:1) HAM media (Invitrogen; Cat#11039) • 1×NEAA (Invitrogen; Cat#11140) • 25 mM HEPES (Invitrogen; Cat#15630) • 1 mM sodium pyruvate (Invitrogen; Cat#11360) • 10% tetracycline negative FBS (PAA; Cat# A15-209) • 1 μg/mL doxycycline (Clontech; Cat#63131) [for hP2X2/3-TRex293 cells only]
(iii) Cell Plating Media for rP2X2/3-TRex293 Cells • DMEM media (Invitrogen; Cat#11965) • 25 mM HEPES (Invitrogen; Cat#15630) • 10% tetracycline negative FBS (PAA; Cat# A15-209) • 1 μg/mL Doxycycline (Clontech; Cat#63131)
(v) Assay Buffer Composition • HBSS (Invitrogen Cat#14025) • 20 mM HEPES (Invitrogen Cat#15630) • 0.01% F127 (Sigma Cat# P2443) • 1.8 mM CaCl2 (Sigma Cat# C5080) • pH adjusted to 7.4 […]

Regarding `Cc1noc(C(C)NC(=O)c2cc(-n3nnnc3C(F)F)c3ncc(-c4ccc(C)s4)n3c2)n1` (stereo in doubt) [Example 19, (R)-8-(5-(Difluoromethyl)-1H-tetrazol-1-yl)-N-(1-(3-methyl-1,2,4-oxadiazol-5-yl)ethyl)-3-(5-methylthiophen-2-yl)imidazo[1,2-a]pyridine-6-carboxamide], the pIC50 at P2X3 and at P2X2/3 was 7.00 to 9.00 throughout. As for `CCc1nnc(-c2cc(C(=O)N[C@@H](C)c3nnc[nH]3)cn3c(-c4ccc(C)s4)cnc23)o1` [Example 1, (S)—N-(1-(4H-1,2,4-Triazol-3-yl)ethyl)-8-(5-ethyl-1,3,4-oxadiazol-2-yl)-3-(5-methylthiophen-2-yl)imidazo[1,2-a]pyridine-6-carboxamide], the pIC50 on P2X3 was 6.00 to 7.00; on P2X2/3, 5.00 to 6.00.

Consider `Cc1ccc(CNC(=O)c2cc(-n3c(C)cnc3C)c3ncc(-c4ccc(C)s4)n3c2)cn1` [Example 2, 8-(2,5-Dimethyl-1H-imidazol-1-yl)-N-((6-methylpyridin-3-yl)methyl)-3-(5-methylthiophen-2-yl)imidazo[1,2-a]pyridine-6-carboxamide], for which the negative-log IC50 (pIC50) was < 5.00 on P2X3 and 6.00 to 7.00 on P2X2/3.

With `Cc1ccc(-c2cnc3c(-n4c(C)nnc4C)cc(C(=O)N[C@@H](C)c4nnc[nH]4)cn23)s1` [Example 3, (S)—N-(1-(4H-1,2,4-Triazol-3-yl)ethyl)-8-(3,5-dimethyl-4H-1,2,4-triazol-4-yl)-3-(5-methylthiophen-2-yl)imidazo[1,2-a]pyridine-6-carboxamide], the pIC50 on P2X3 is 5.00 to 6.00; on P2X2/3, 6.00 to 7.00. The matching figures for `Cc1ccc(-c2cnc3c(-n4nncc4C(F)F)cc(C(=O)N[C@@H](C)c4nnc[nH]4)cn23)s1` [Example 4, (S)—N-(1-(4H-1,2,4-Triazol-3-yl)ethyl)-8-(5-(difluoromethyl)-1H-1,2,3-triazol-1-yl)-3-(5-methylthiophen-2-yl)imidazo[1,2-a]pyridine-6-carboxamide]: 7.00 to 9.00 and 7.00 to 9.00. As to `Cc1ccc(CNC(=O)c2cc(-n3nncc3C(F)F)c3ncc(-c4nnc(C)s4)n3c2)cn1` [Example 5, 8-(5-(Difluoromethyl)-1H-1,2,3-triazol-1-yl)-3-(5-methyl-1,3,4-thiadiazol-2-yl)-N-((6-methylpyridin-3-yl)methyl)imidazo[1,2-a]pyridine-6-carboxamide], the negative-log IC50 (pIC50) at P2X3 and at P2X2/3 was 6.00 to 7.00 in each case. Consider `CCc1ccnn1-c1cc(C(=O)NCc2ccc(C)nc2)cn2c(-c3ccc(C)s3)cnc12` [Example 6, 8-(5-Ethyl-1H-pyrazol-1-yl)-N-((6-methylpyridin-3-yl)methyl)-3-(5-methylthiophen-2-yl)imidazo[1,2-a]pyridine-6-carboxamide], for which the results for the pIC50 at P2X3 and at P2X2/3 were < 5.00 and 6.00 to 7.00, respectively. The like results for `Cc1ccc(-c2cnc3c(Nc4ccccc4)cc(C(=O)N[C@@H](C)c4nnc[nH]4)cn23)s1` [Example 7, (S)—N-(1-(4H-1,2,4-Triazol-3-yl)ethyl)-3-(5-methylthiophen-2-yl)-8-(phenylamino)imidazo[1,2-a]pyridine-6-carboxamide] were, in that order, 7.00 to 9.00 and 6.00 to 7.00.

As for `Cc1ccc(-c2cnc3c(-c4cnn(C)c4)cc(C(=O)N[C@@H](C)c4nnc[nH]4)cn23)s1` [Example 8, (S)—N-(1-(4H-1,2,4-Triazol-3-yl)ethyl)-8-(1-methyl-1H-pyrazol-4-yl)-3-(5-methylthiophen-2-yl)imidazo[1,2-a]pyridine-6-carboxamide], the negative logarithm of the IC50 (pIC50) on P2X3 was 7.00 to 9.00; on P2X2/3, 6.00 to 7.00. With `CCCSc1cnc2c(N3CCC(C)CC3)cc(C(=O)N[C@@H](C)c3nnc[nH]3)cn12` [Example 10, (S)—N-(1-(4H-1,2,4-Triazol-3-yl)ethyl)-8-(4-methylpiperidin-1-yl)-3-(propylthio)imidazo[1,2-a]pyridine-6-carboxamide], the pIC50 on P2X3 is 6.00 to 7.00; at P2X2/3 it was 5.00 to 6.00.

On to `Cc1ccc(-c2cnc3c(N4CCC(C)CC4)cc(C(=O)N[C@@H](C)c4nnc[nH]4)cn23)s1` [Example 11, (S)—N-(1-(4H-1,2,4-Triazol-3-yl)ethyl)-8-(4-methylpiperidin-1-yl)-3-(5-methylthiophen-2-yl)imidazo[1,2-a]pyridine-6-carboxamide], for which the pIC50 at P2X3 was 7.00 to 9.00; at P2X2/3 it was 6.00 to 7.00. The matching figures for `Cc1ccc(-c2cnc3c(N4CCC(C)(C(N)=O)CC4)cc(C(=O)N[C@@H](C)c4nnc[nH]4)cn23)s1` [Example 12, (S)—N-(1-(4H-1,2,4-Triazol-3-yl)ethyl)-8-(4-carbamoyl-4-methylpiperidin-1-yl)-3-(5-methylthiophen-2-yl)imidazo[1,2-a]pyridine-6-carboxamide]: 7.00 to 9.00 and 7.00 to 9.00.

For `Cc1ccc(CNC(=O)c2cc(-n3nncc3C(F)F)c3ncc(-c4ccc(C)s4)n3c2)cn1` [Example 27], the negative-log IC50 (pIC50) on P2X3 was 7.00 to 9.00. Same read-out and setting: under `Cc1ccc(-c2cnc3c(N4CCC(F)(F)CC4)cc(C(=O)N[C@@H](C)c4cc[nH]n4)cn23)s1` [Example 143] stands 5.00 to 6.00. On to `COc1ccc(CNC(=O)c2cc(-n3nnnc3C3CCC3)c3ncc(-c4ccc(C)s4)n3c2)cc1` [Example 163], for which the negative-log IC50 (pIC50) on P2X3 was < 5.00.

The values above are taken from patent US10316039B2, “P2X3 and/or P2X2/3 compounds and methods” (Asana Biosciences, LLC, priority 2013, dated 2019).
